Test results: US20230085307A1, “PYRIDAZINONE COMPOUND AND HERBICIDE” (NISSAN CHEMICAL CORPORATION, priority 2019, published 2023)

Columns and labels:
southern crabgrass [1] = assay: Test Example 5: herbicidal effect by foliage application, plastic box (Table 20, symbol F); type: in vivo, southern crabgrass (Digitaria ciliaris); details: 320 g/ha; for F: southern crabgrass, herbicidal effect grade: foliage application, three weeks after application
Procedure, shortened: (§1)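 Post-emergence foliar test in sterilized diluvial soil. Compound applied as water-diluted emulsion at a predetermined rate to 14-day-old plants; evaluation at three weeks.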

blackgrass [2] = assay: Test Example 4: herbicidal effect by soil treatment (Table 19, symbol J); type: in vivo, blackgrass (Alopecurus myosuroides); details: amount of applied herbicide 320 g/ha
Procedure, shortened: (§2)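 Scoring uses the grading scale of an earlier test, three weeks post-application. Treatment consists of spraying a diluted emulsion formulation across the surface of sterilized diluvial soil in which seeds are buried near 1.5 cm deep; boxes are kept in a greenhouse between 25° C. and 30° C.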

late watergrass = assay: Test Example 2: herbicidal activity, application during weed generation under submerged conditions (Table 17, symbol A); type: in vivo, late watergrass (Echinochloa oryzicola); details: AAH 320 g/ha; application during weed generation, submerged conditions
Procedure, shortened: (§3)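 3-wk visual-criteria score after one water-surface dose. Emulsion formulation, water-diluted to set rate; applied at 1–2 leaf stage; alluvial soil, 4 cm standing water; seeds co-sown; greenhouse 25–30° C.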

oval-leafed pondweed = assay: Test Example 1: herbicidal activity, application before weed generation under submerged conditions (Table 16, symbol C); type: in vivo, oval-leafed pondweed (Monochoria vaginalis); details: amount of applied herbicide 320 g/ha
Procedure, shortened: (§4)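 Submerged Wagner pots (alluvial soil, 4 cm water) sown with weed seeds and planted with 2.5-leaf rice seedlings; emulsifiable concentrate diluted in water applied to water surface on sowing day. Held in greenhouse at 25-30 °C; injury scored 0-5 by herbicidal rate after three weeks.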

blackgrass [3] = assay: Test Example 5: herbicidal effect by foliage application, plastic box (Table 20, symbol J); type: in vivo, blackgrass (Alopecurus myosuroides); details: 320 g/ha; for J: blackgrass, herbicidal effect grade: foliage application, three weeks after application
Procedure, shortened: as §1

barnyard grass [4] = assay: Test Example 3: herbicidal effect by foliage application, Wagner pot (Table 18, symbol H); type: in vivo, barnyard grass (Echinochloa crus-galli); details: for herbicidal effect on barnyard grass (H): 320 g/ha
Procedure, shortened: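 Plants were sown in alluvial soil held under 0.1–0.5 cm standing water and grown 14 days in a greenhouse at 25–30 °C. An emulsifiable formulation, water-diluted to the set dose, was then sprayed onto the foliage, and effects were scored three weeks later using previously defined criteria.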

barnyard grass [5] = assay: Test Example 4: herbicidal effect by soil treatment (Table 19, symbol H); type: in vivo, barnyard grass (Echinochloa crus-galli); details: amount of applied herbicide 320 g/ha
Procedure, shortened: as §2

chickweed = assay: Test Example 4: herbicidal effect by soil treatment (Table 19, symbol P); type: in vivo, common chickweed (Stellaria media); details: amount of applied herbicide 320 g/ha
Procedure, shortened: as §2

southern crabgrass [6] = assay: Test Example 4: herbicidal effect by soil treatment (Table 19, symbol F); type: in vivo, southern crabgrass (Digitaria ciliaris); details: amount of applied herbicide 320 g/ha
Procedure, shortened: as §2

lambsquarters = assay: Test Example 5: herbicidal effect by foliage application, plastic box (Table 20, symbol O); type: in vivo, lambsquarters (Chenopodium album); details: 320 g/ha; for O: lambsquarters, herbicidal effect grade: foliage application, three weeks after application
Procedure, shortened: as §1

persian speedwell = assay: Test Example 5: herbicidal effect by foliage application, plastic box (Table 20, symbol R); type: in vivo, Persian speedwell (Veronica persica); details: 320 g/ha; for R: persian speedwell, herbicidal effect grade: foliage application, three weeks after application
Procedure, shortened: as §1

redroot pigweed [7] = assay: Test Example 5: herbicidal effect by foliage application, plastic box (Table 20, symbol N); type: in vivo, redroot pigweed (Amaranthus retroflexus); details: 320 g/ha; for N: redroot pigweed, herbicidal effect grade: foliage application, three weeks after application
Procedure, shortened: as §1

wild oat = assay: Test Example 5: herbicidal effect by foliage application, plastic box (Table 20, symbol I); type: in vivo, wild oat (Avena fatua); details: 320 g/ha; for I: wild oat, herbicidal effect grade: foliage application, three weeks after application
Procedure, shortened: as §1

Japanese bulrush [8] = assay: Test Example 2: herbicidal activity, application during weed generation under submerged conditions (Table 17, symbol B); type: in vivo, Japanese bulrush (Schoenoplectus juncoides); details: AAH 320 g/ha; application during weed generation, submerged conditions
Procedure, shortened: as §3

Japanese bulrush [9] = assay: Test Example 1: herbicidal activity, application before weed generation under submerged conditions (Table 16, symbol B); type: in vivo, Japanese bulrush (Schoenoplectus juncoides); details: amount of applied herbicide 320 g/ha
Procedure, shortened: as §4

green foxtail = assay: Test Example 5: herbicidal effect by foliage application, plastic box (Table 20, symbol G); type: in vivo, green foxtail (Setaria viridis); details: 320 g/ha; for G: green foxtail, herbicidal effect grade: foliage application, three weeks after application
Procedure, shortened: as §1

redroot pigweed [10] = assay: Test Example 4: herbicidal effect by soil treatment (Table 19, symbol N); type: in vivo, redroot pigweed (Amaranthus retroflexus); details: amount of applied herbicide 320 g/ha
Procedure, shortened: as §2

[11] = foliage application after 14-day growth, evaluated three weeks after application

SMILES	F: southern crabgrass, herbicidal effect grade (southern crabgrass [1])	herbicidal effect rating, A: late watergrass (late watergrass)	Herbicidal effect, C: oval-leafed pondweed (oval-leafed pondweed)	J: blackgrass, herbicidal effect grade (blackgrass [3])	O: lambsquarters, herbicidal effect grade (lambsquarters)	R: persian speedwell, herbicidal effect grade (persian speedwell)	N: redroot pigweed, herbicidal effect grade (redroot pigweed [7])	I: wild oat, herbicidal effect grade (wild oat)	herbicidal effect rating, B: Japanese bulrush (Japanese bulrush [8])	Herbicidal effect, B: Japanese bulrush (Japanese bulrush [9])	G: green foxtail, herbicidal effect grade (green foxtail)	herbicidal effect on barnyard grass (H) (barnyard grass [4])	J: blackgrass, herbicidal effect grade (blackgrass [2])	H: barnyard grass, herbicidal effect grade (barnyard grass [5])	P: chickweed, herbicidal effect grade (chickweed)	F: southern crabgrass, herbicidal effect grade (southern crabgrass [6])	N: redroot pigweed, herbicidal effect grade (redroot pigweed [10])	other results
CCCC(=O)Oc1c(C)nn(C)c(=O)c1-c1c(-c2ccc(OC)cc2)sc2cc(F)ccc12 [3-008]	4 (Herbicidal rate of 70% or more and less than 90%)	0 (Herbicidal rate of 5% or less (almost no effect))	5 (Herbicidal rate of 90% or more (almost completely withered))	1 (Herbicidal rate of 5% or more and less than 20%)	5 (Herbicidal rate of 90% or more (almost completely withered))	5 (Herbicidal rate of 90% or more (almost completely withered))	5 (Herbicidal rate of 90% or more (almost completely withered))	0 (Herbicidal rate of 5% or less (almost no effect))	2 (Herbicidal rate of 20% or more and less than 40%)	5 (Herbicidal rate of 90% or more (almost completely withered))	3 (Herbicidal rate of 40% or more and less than 70%)							herbicidal effect, J: blackgrass (blackgrass [2]): 0 (Herbicidal rate of 5% or less (almost no effect)); herbicidal effect on H: barnyard grass (barnyard grass [4]; amount of applied herbicide 320 g/ha): 4 (Herbicidal rate of 70% or more and less than 90%); herbicidal effect, H: barnyard grass (barnyard grass [5]): 0 (Herbicidal rate of 5% or less (almost no effect)); herbicidal effect, P: chickweed (chickweed): 5 (Herbicidal rate of 90% or more (almost completely withered)); herbicidal effect, F: southern crabgrass (southern crabgrass [6]): 0 (Herbicidal rate of 5% or less (almost no effect)); herbicidal effect, N: redroot pigweed (redroot pigweed [10]): 5 (Herbicidal rate of 90% or more (almost completely withered))
Cc1nn(C)c(=O)c(-c2c(-c3ccc(Cl)c(F)c3)sc3c(F)cccc23)c1O [4-054]		2 (Herbicidal rate of 20% or more and less than 40%)	0 (Herbicidal rate of 5% or less (almost no effect))						2 (Herbicidal rate of 20% or more and less than 40%)	3 (Herbicidal rate of 40% or more and less than 70%)		2 (Herbicidal rate of 20% or more and less than 40%)						herbicidal effect on F: southern crabgrass (evaluation grade 0-5) (southern crabgrass [1]; [11]): 2 (Herbicidal rate of 20% or more and less than 40%); Herbicidal effect by soil treatment, J: blackgrass (blackgrass [2]): 0 (Herbicidal rate of 5% or less (almost no effect)); herbicidal effect on J: blackgrass (evaluation grade 0-5) (blackgrass [3]; [11]): 0 (Herbicidal rate of 5% or less (almost no effect)); Herbicidal effect by soil treatment, H: barnyard grass (barnyard grass [5]): 0 (Herbicidal rate of 5% or less (almost no effect)); Herbicidal effect by soil treatment, P: chickweed (chickweed): 4 (Herbicidal rate of 70% or more and less than 90%); Herbicidal effect by soil treatment, F: southern crabgrass (southern crabgrass [6]): 0 (Herbicidal rate of 5% or less (almost no effect)); herbicidal effect on O: lambsquarters (evaluation grade 0-5) (lambsquarters; [11]): 3 (Herbicidal rate of 40% or more and less than 70%); herbicidal effect on R: persian speedwell (evaluation grade 0-5) (persian speedwell; [11]): 5 (Herbicidal rate of 90% or more (almost completely withered)); herbicidal effect on N: redroot pigweed (evaluation grade 0-5) (redroot pigweed [7]; [11]): 5 (Herbicidal rate of 90% or more (almost completely withered)); herbicidal effect on I: wild oat (evaluation grade 0-5) (wild oat; [11]): 0 (Herbicidal rate of 5% or less (almost no effect)); herbicidal effect on G: green foxtail (evaluation grade 0-5) (green foxtail; [11]): 3 (Herbicidal rate of 40% or more and less than 70%); Herbicidal effect by soil treatment, N: redroot pigweed (redroot pigweed [10]): 2 (Herbicidal rate of 20% or more and less than 40%)
COc1ccccc1-c1sc2cc(OC(C)C)ccc2c1-c1c(O)c(C)nn(C)c1=O [3-101]	5 (Herbicidal rate of 90% or more (almost completely withered))	3 (Herbicidal rate of 40% or more and less than 70%)	5 (Herbicidal rate of 90% or more (almost completely withered))	5 (Herbicidal rate of 90% or more (almost completely withered))	5 (Herbicidal rate of 90% or more (almost completely withered))	5 (Herbicidal rate of 90% or more (almost completely withered))	5 (Herbicidal rate of 90% or more (almost completely withered))	4 (Herbicidal rate of 70% or more and less than 90%)	3 (Herbicidal rate of 40% or more and less than 70%)	5 (Herbicidal rate of 90% or more (almost completely withered))	5 (Herbicidal rate of 90% or more (almost completely withered))	5 (Herbicidal rate of 90% or more (almost completely withered))	4 (Herbicidal rate of 70% or more and less than 90%)	5 (Herbicidal rate of 90% or more (almost completely withered))	4 (Herbicidal rate of 70% or more and less than 90%)	2 (Herbicidal rate of 20% or more and less than 40%)	4 (Herbicidal rate of 70% or more and less than 90%)	
CCCC(=O)Oc1c(C)nn(C)c(=O)c1-c1c(-c2ccc(F)cc2OC)sc2cc(OC)ccc12 [3-077]	0 (Herbicidal rate of 5% or less (almost no effect))	2 (Herbicidal rate of 20% or more and less than 40%)	5 (Herbicidal rate of 90% or more (almost completely withered))	4 (Herbicidal rate of 70% or more and less than 90%)	4 (Herbicidal rate of 70% or more and less than 90%)	3 (Herbicidal rate of 40% or more and less than 70%)	3 (Herbicidal rate of 40% or more and less than 70%)	4 (Herbicidal rate of 70% or more and less than 90%)	4 (Herbicidal rate of 70% or more and less than 90%)	5 (Herbicidal rate of 90% or more (almost completely withered))	5 (Herbicidal rate of 90% or more (almost completely withered))	5 (Herbicidal rate of 90% or more (almost completely withered))	3 (Herbicidal rate of 40% or more and less than 70%)	3 (Herbicidal rate of 40% or more and less than 70%)	4 (Herbicidal rate of 70% or more and less than 90%)	0 (Herbicidal rate of 5% or less (almost no effect))	5 (Herbicidal rate of 90% or more (almost completely withered))	
